The supplement of paper PMC10307832

Legend:
Experiment in all cases: relative viability (nuclei count vs DMSO), 5 days (fraction); higher = more cells survive
NCI-H1915 = system: NCI-H1915
How it was run: (§1)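 Relative viability equals treated-well nuclei counts divided by vehicle-well nuclei counts. Counts came from 4× images of lung cancer cell lines grown in 1536-well plates for 5 days after pin-tool dosing on the day after seeding. Dosing used one drug alone or a fixed anchor-drug dose plus five library-drug doses (not always all listed) in √10 steps, and values are medians of duplicate plates.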

RERF-LC-KJ = system: RERF-LC-KJ
How it was run: as §1

LC-2-ad = system: LC-2-ad
How it was run: as §1

SW 1573 = system: SW 1573
How it was run: as §1

NCI-H1355 = system: NCI-H1355
How it was run: as §1

NCI-H2228 = system: NCI-H2228
How it was run: as §1

A-427 = system: A-427
How it was run: as §1

LCLC-97TM1 = system: LCLC-97TM1
How it was run: as §1

LOU-NH91 = system: LOU-NH91
How it was run: as §1

NCI-H650 = system: NCI-H650
How it was run: as §1

LU99A = system: LU99A
How it was run: as §1

NCI-H520 = system: NCI-H520
How it was run: as §1

NCI-H460 = system: NCI-H460
How it was run: as §1

NCI-H838 = system: NCI-H838
How it was run: as §1

NCI-H1993 = system: NCI-H1993
How it was run: as §1

EKVX = system: EKVX
How it was run: as §1

NCI-H1793 = system: NCI-H1793
How it was run: as §1

NCI-H23 = system: NCI-H23
How it was run: as §1

NCI-H1666 = system: NCI-H1666
How it was run: as §1

NCI-H2347 = system: NCI-H2347
How it was run: as §1

PC-3 [JPC-3] = system: PC-3 [JPC-3]
How it was run: as §1

BEN = system: BEN
How it was run: as §1

NCI-H1650 = system: NCI-H1650
How it was run: as §1

Cc1cnc(-c2cnc(NCCNc3ccc(C#N)cn3)nc2-c2ccc(Cl)cc2Cl)[nH]1 + CS(=O)(=O)CCNCc1ccc(-c2ccc3ncnc(Nc4ccc(OCc5cccc(F)c5)c(Cl)c4)c3c2)o1 [Lapatinib] (partner 2 µM)
relative viability (NCI-H1915; first compound 0.08 µM): 0.985
relative viability (NCI-H1915; first compound 0.8 µM): 0.947
relative viability (NCI-H1915; first compound 2.53 µM): 1.04
relative viability (RERF-LC-KJ; first compound 0.08 µM): 0.902
relative viability (RERF-LC-KJ; first compound 0.253 µM): 0.777
relative viability (RERF-LC-KJ; first compound 0.8 µM): 0.771
relative viability (RERF-LC-KJ; first compound 2.53 µM): 0.932
relative viability (LC-2-ad; first compound 0.08 µM): 1.06
relative viability (LC-2-ad; first compound 0.8 µM): 0.761
relative viability (LC-2-ad; first compound 2.53 µM): 0.898
relative viability (SW 1573; first compound 0.08 µM): 1.02
relative viability (SW 1573; first compound 0.253 µM): 1.04
relative viability (SW 1573; first compound 0.8 µM): 1.1
relative viability (SW 1573; first compound 2.53 µM): 1.02
relative viability (NCI-H1355; first compound 0.08 µM): 1.06
relative viability (NCI-H1355; first compound 0.253 µM): 0.8
relative viability (NCI-H1355; first compound 0.8 µM): 0.95
relative viability (NCI-H1355; first compound 2.53 µM): 0.909
relative viability (NCI-H2228; first compound 0.08 µM): 1.23
relative viability (NCI-H2228; first compound 0.253 µM): 0.904
relative viability (NCI-H2228; first compound 0.8 µM): 0.911
relative viability (NCI-H2228; first compound 2.53 µM): 0.781
relative viability (A-427; first compound 0.08 µM): 1.03
relative viability (A-427; first compound 0.253 µM): 0.942
relative viability (A-427; first compound 0.8 µM): 1.09
relative viability (A-427; first compound 2.53 µM): 1.03
relative viability (LCLC-97TM1; first compound 0.08 µM): 1.1
relative viability (LCLC-97TM1; first compound 0.253 µM): 0.883
relative viability (LCLC-97TM1; first compound 0.8 µM): 1.07
relative viability (LCLC-97TM1; first compound 2.53 µM): 0.745
relative viability (LOU-NH91; first compound 0.08 µM): 0.811
relative viability (LOU-NH91; first compound 0.253 µM): 0.738
relative viability (LOU-NH91; first compound 0.8 µM): 0.739
relative viability (LOU-NH91; first compound 2.53 µM): 0.866
relative viability (NCI-H650; first compound 0.08 µM): 0.926
relative viability (NCI-H650; first compound 0.253 µM): 1.12
relative viability (NCI-H650; first compound 0.8 µM): 0.478
relative viability (NCI-H650; first compound 2.53 µM): 0.789
relative viability (LU99A; first compound 0.08 µM): 1.06
relative viability (LU99A; first compound 0.253 µM): 0.879
relative viability (LU99A; first compound 0.8 µM): 1.06
relative viability (LU99A; first compound 2.53 µM): 1.04
relative viability (NCI-H520; first compound 0.08 µM): 0.962
relative viability (NCI-H520; first compound 0.253 µM): 0.823
relative viability (NCI-H520; first compound 0.8 µM): 0.93
relative viability (NCI-H520; first compound 2.53 µM): 0.891
relative viability (NCI-H460; first compound 0.08 µM): 0.943
relative viability (NCI-H460; first compound 0.253 µM): 0.826
relative viability (NCI-H460; first compound 0.8 µM): 0.864
relative viability (NCI-H460; first compound 2.53 µM): 0.775
relative viability (NCI-H838; first compound 0.08 µM): 1.12
relative viability (NCI-H838; first compound 0.253 µM): 0.858
relative viability (NCI-H838; first compound 0.8 µM): 1.11
relative viability (NCI-H838; first compound 2.53 µM): 1.27
relative viability (NCI-H1993; first compound 0.08 µM): 0.957
relative viability (NCI-H1993; first compound 0.253 µM): 0.756
relative viability (NCI-H1993; first compound 0.8 µM): 0.823
relative viability (NCI-H1993; first compound 2.53 µM): 0.937
relative viability (EKVX; first compound 0.08 µM): 0.235
relative viability (EKVX; first compound 0.253 µM): 0.222
relative viability (EKVX; first compound 2.53 µM): 0.224
relative viability (NCI-H1793; first compound 0.08 µM): 0.608
relative viability (NCI-H1793; first compound 0.253 µM): 0.678
relative viability (NCI-H1793; first compound 0.8 µM): 0.721
relative viability (NCI-H1793; first compound 2.53 µM): 1.02
relative viability (NCI-H23; first compound 0.08 µM): 1.14
relative viability (NCI-H23; first compound 0.253 µM): 1.02
relative viability (NCI-H23; first compound 0.8 µM): 1.07
relative viability (NCI-H23; first compound 2.53 µM): 1.11
relative viability (NCI-H1666; first compound 0.08 µM): 0.768
relative viability (NCI-H1666; first compound 0.253 µM): 0.554
relative viability (NCI-H1666; first compound 0.8 µM): 0.595
relative viability (NCI-H1666; first compound 2.53 µM): 0.62
relative viability (NCI-H2347; first compound 0.08 µM): 0.862
relative viability (NCI-H2347; first compound 0.253 µM): 0.649
relative viability (NCI-H2347; first compound 0.8 µM): 1.06
relative viability (NCI-H2347; first compound 2.53 µM): 1.02
relative viability (PC-3 [JPC-3]; first compound 0.08 µM): 0.498
relative viability (PC-3 [JPC-3]; first compound 0.253 µM): 0.449
relative viability (PC-3 [JPC-3]; first compound 0.8 µM): 0.419
relative viability (PC-3 [JPC-3]; first compound 2.53 µM): 0.474
relative viability (BEN; first compound 0.08 µM): 0.615
relative viability (BEN; first compound 0.253 µM): 0.686
relative viability (BEN; first compound 0.8 µM): 0.705
relative viability (BEN; first compound 2.53 µM): 0.621
relative viability (NCI-H1650; first compound 0.08 µM): 0.842
relative viability (NCI-H1650; first compound 0.253 µM): 0.668
relative viability (NCI-H1650; first compound 0.8 µM): 0.387
relative viability (NCI-H1650; first compound 2.53 µM): 0.555
